{"source": "patent US4734280A", "about": "“Treatment or prevention of PAF Acether-induced maladies” (priority 1984, dated 1988)", "key": {"[1]": {"tested_on": "guinea-pig lung parenchymal strip", "assay": "PAF Acether-induced contraction of superfused lung parenchymal strip"}, "human washed platelets": {"tested_on": "human washed platelets", "assay": "Inhibition of PAF Acether-induced PA, human washed platelets", "type": "cell-based", "conditions": "Platelet, average values of 5 assays", "excerpt": "The inhibition of PAF Acether-induced PA was also experimented using human washed platelets on Ginkgolides A, B, and C.\nBest figure for IC50 was obtained with Ginkgolide B (GK B) (average values of 5 assays) with 2.5 10^-5 M."}, "Hartley guinea-pig": {"tested_on": "Hartley guinea-pig", "assay": "PAF Acether-induced bronchoconstriction in the anesthetized guinea-pig", "type": "in vivo", "conditions": "1 mg/kg IV", "description": "Method: (For details, see B. B. VARGAFTIG, J. LEFORT, F. WAL, M. CHIGNARD and M. C. MEDEIROS-Non-steroidal anti-inflammatory drugs of combined with anti-histamine and anti-serotonin agents interfere with the bronchial and platelet effects of PAF Acether-Enr. J. Pharm. (1982) 82 121-130). Male Hartley guinea-pig (400-500 g) were anesthetized with urethane 2 g/kg Ip., tracheotomised and ventilated by mean of a respiratory pump: 70-80 strokes mn, stroke volume 5 ml, a pneumothorax was done to abolish spontaneous respiration. The right jugular vein was catherized and used for injections.\nThe initial resistance was kept constant at 10 cm H2 O pressure according to the method of Konzett and Rossler and the overflowed airway was measured with a bronchospasm transducer UGO BASILE connected to a UGO BASILE recorder \"GEMINI\". Bronchial sensitivity of the animal was checked with acetylcholine (10-40 ng kg^-1 IV) and after constant response was obtained, there were injected, IV, first the propylene glycol and, five minutes later, 60 ng/kg of PAF Acether, which gave the control bronchoconstriction expressed as % of maximal bronchoconstriction given by clamping off the trachea. 40 minutes later, the tested compounds were administered by IV injection and, 5 minutes later, 60 ng/kg of PAF Acether by the same route. This experimentation was conducted on three batches of each 10 animals: first batch for Ginkgolide A, second one for Ginkgolide B and last one for Ginkgolide C, all at the 1 mg/kg dose. The figures of the following table are the average values for the 10 animals of each batch."}, "thermal-injured patients": {"tested_on": "thermal-injured patients", "assay": "Preliminary clinical trial in thermal-injured patients (open study)", "type": "in vivo, human", "conditions": "perfusion 5 mg per hour for six hours then 2 mg per hour for 48 hours; 13 patients, burnt surface area >50%", "description": "An open study has been performed on 13 thermal-injured patients (total burnt surface area >50%) treated by Ginkgolide B.\nThe Ginkgolide B was administered in a perfusion (5 mg per hour for six hours and then 2 mg per hour for the following 48 hours)."}, "rat portal vein": {"tested_on": "rat portal vein", "assay": "Isolated rat portal vein, PAF Acether-induced increase of basal tonus", "description": "In vitro experiments were performed on isolated longitudinal strips of rat portal vein maintained in Krebs-Henseleit medium at 37° C. under an oxygen-rich gaseous circulation (95% O2 -5% CO2).\nThe preparations were allowed to equilibrate for 1 hour under isotonic conditions with 500 mg tension and rinced every 15 minutes. When myogenic activity was established, PAF Acether (10^-7 M) is added. It induced an increase of the basal tonus and frequency of the myogenic activity."}, "human platelets": {"tested_on": "human platelets", "assay": "Ex vivo PAF Acether-induced PA in man after IV administration", "conditions": "IV 25 mg, PAF Acether 100 nM", "description": "[…] DMSO).\nThe same protocol described hereinabove for rabbit was used in man with only one dose of each Ginkgolide (IV 25 mg) and two blood takes (at 0.5 h and 1 h)."}, "PAF-Acether receptor": {"molecular_target": "T1, PAF-Acether receptor (Oryctolagus cuniculus, UniProt G1TEI7)", "T1 construct": "using a rabbit membrane platelet preparation; from tissue; host or cells: rabbit platelets (membrane preparation)", "T1 sequence (G1TEI7 1-342)": "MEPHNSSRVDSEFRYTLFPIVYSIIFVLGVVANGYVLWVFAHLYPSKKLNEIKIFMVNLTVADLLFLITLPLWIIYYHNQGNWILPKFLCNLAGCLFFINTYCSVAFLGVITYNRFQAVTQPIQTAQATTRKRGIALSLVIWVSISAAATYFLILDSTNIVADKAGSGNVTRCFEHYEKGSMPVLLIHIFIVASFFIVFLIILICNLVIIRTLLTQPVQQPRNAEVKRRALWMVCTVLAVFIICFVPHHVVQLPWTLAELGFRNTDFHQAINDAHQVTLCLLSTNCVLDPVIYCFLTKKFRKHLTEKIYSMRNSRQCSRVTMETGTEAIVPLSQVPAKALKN", "assay": "Competition with 3H-PAF Acether binding, rabbit membrane platelet preparation", "source_text": "The competition of the alternative binding of either ^3 H-PAF Acether or one of the Ginkgolides was evidenced by radioactive determinations using a rabbit membrane platelet preparation. (100% control=^3 H-PAF Acether alone)."}, "Sprague-Dowley rats": {"tested_on": "Sprague-Dowley rats", "assay": "Cutaneous vascular hyperpermeability induced by PAF Acether in the rat", "type": "in vivo", "conditions": "1 mg/kg IV", "description": "Method: Intradermal injection of 25 ng of PAF Acether in the dorsal region of the rat with simultaneous IV injection of Evans blue dye (60 mg/kg/5 ml) induces vascular hyperpermeability and wheals formation. (for details see Basran GS, Page CP, Paul W and Morley J-Cromoglycate inhibits responses to platelet-activating factor (PAF Acether) in man: an alternative mode of action for DSCG in asthma-Eur. J. Pharma. (1983) 86 143-144).\nThese wheals were measured (surface in mm^2) at the inner side of the skin 30 mn after the injections and were taken off, put in 4 ml of formamide, incubated at 65° C. during 24 h in order to extract the dye and measure their coloration (optical density at 620 nm).\nGroups of 6 Sprague-Dowley rats weighing 200 g were used and each rat received intradermal injections in two sites of the back. The experiment was performed in comparison with a reference compound, D 600 (methoxy verapamil), a calcium-blocker agent.\nTreatments: Tested compounds were administered by IV route injected once simultaneously with the dye."}, "human PRP": {"tested_on": "human PRP", "assay": "Inhibition of PAF Acether-induced PA, human PRP in vitro", "type": "cell-based", "conditions": "PAF Acether 100 nM, read-out: IC Doses (PAF Acether-induced PA, human PRP)", "description": "The Inhibition of PAF Acether-induced PA has been studied on rabbit plasma-rich platelets (PRP). Two doses of PAF Acether were used (2.5 nM and 5 nM). The tested compound was added to the medium 3 minutes before PAF Acether and aggregation was followed by monitoring changes in electrical impedance (Whole-Blood aggregometer-chrono-Log); kadsurenone was simultaneously tested as reference compound and the IC50 molar doses of Ginkgolides A, B, C and M and of kadsurenone on PAF Acether-induced rabbit PA (PRP) have been calculated.\nThe inhibition of PAF Acether-induced PA has been studied on human PRP. The same protocol was used as for rabbit hereinabove."}, "[2]": {"tested_on": "rabbit plasma-rich platelets (PRP)", "assay": "Aggregation induced by other known aggregants (ADP, thrombine, calcium ionophore A 23187, collagen, adrenaline)", "type": "cell-based", "conditions": "calcium ionophore A 23187, collagen and adrenaline"}}}
{"smiles": "CC1C(=O)OC2C(O)C34C5CC(C(C)(C)C)C36C(OC(=O)C6O)OC4(C(=O)O5)C12O", "note": "(stereo not drawn) [Ginkgolide B]", "values": [{"measurement": "inhibition at 30 µg/mL", "setting": "[1]; Cavia porcellus, read-out: change of PAF Acether (3 ng)-induced contraction", "result": 78.8, "unit": "%"}, {"measurement": "Contraction induced by PAF Acether (3 ng) (Arbitrary Units)", "setting": "[1]; preventive superfusion 30 μg/ml, average of 10 determinations", "result": "8.05 ± 2.16", "unit": "Arbitrary Units"}, {"measurement": "IC50", "setting": "human washed platelets", "result": 25, "unit": "µM"}, {"measurement": "% of bronchoconstriction", "setting": "Hartley guinea-pig; 5 minutes before PAF Acether 60 ng/kg IV, % of maximal bronchoconstriction, average of 10 animals", "result": 6.2, "unit": "%"}, {"measurement": "% of inhibition (bronchoconstriction)", "setting": "Hartley guinea-pig; vs solvent in the same batch", "result": 92.3, "unit": "%"}, {"measurement": "clinical outcome in thermal-injured patients", "setting": "thermal-injured patients", "result": "faster recovery (decreased oedema, decreased plasma leakage and improvement of clinical outcome)"}, {"measurement": "IC50", "setting": "rat portal vein; Rattus norvegicus, PAF Acether 10^-7 M, added 30 minutes before PAF Acether, read-out: IC50 (antagonism of PAF Acether-induced increase of the basal tonus)", "result": 6.8, "unit": "µg/mL"}, {"measurement": "effect on the myogenic activity", "setting": "rat portal vein; isolated rat portal vein", "result": "without effect"}, {"measurement": "% of aggregation with respect to control", "setting": "human platelets; blood take at 0.5 h", "result": 0, "unit": "%"}, {"measurement": "% of aggregation with respect to control", "setting": "human platelets; blood take at 1.0 h", "result": 3.4, "unit": "%"}, {"measurement": "IC50", "setting": "PAF-Acether receptor; rabbit membrane platelet preparation", "result": 0.575, "unit": "µM"}, {"measurement": "inhibition at 1 µM", "setting": "PAF-Acether receptor; read-out: reduction of 3H-PAF Acether binding", "result": 94, "unit": "%"}, {"measurement": "PAF Acether induced wheal, Surface", "setting": "Sprague-Dowley rats; PAF Acether 25 ng intradermal, 30 mn, p < 0.001", "result": 58.5, "unit": "mm^2"}, {"measurement": "PAF Acether induced wheal, Coloration OD", "setting": "Sprague-Dowley rats; optical density at 620 nm, p < 0.001", "result": 0.628, "unit": "OD"}, {"measurement": "PAF Acether induced wheal, Coloration % decrease", "setting": "Sprague-Dowley rats; vs control", "result": -45, "unit": "%"}, {"measurement": "PAF Acether induced wheal, Surface % decrease", "setting": "Sprague-Dowley rats; vs control", "result": -43, "unit": "%"}, {"measurement": "IC50", "setting": "human PRP", "result": 56, "unit": "µM"}, {"measurement": "effect against aggregation induced by other known aggregants", "setting": "[2]", "result": "totally ineffective"}]}
